{"source": "patent US20210346357A1", "about": "(priority 2020, published 2021)", "system": "Symptomatic Acute Lung Injury Associated with COVID-19", "experiment": "Phase 2 study Part 1, inhaled compound 1 in hospitalized COVID-19 patients", "settings": "COVID-19 patients; for Modified Borg Dyspnea Score, Baseline, Mean: baseline value", "key": {"[1]": {"settings": "1 mg, matched D1 and D7 samples"}}, "note": "“And” between values parts separate entries of the source, which are not always exact repeats. Equal entries are not always repeated.", "data": [{"smiles": "CCc1cc(O)ccc1-c1ccc2c(-c3nc4c([nH]3)CN(C(C)C)[C@H](C(=O)N3CC(N(C)C)C3)C4)n[nH]c2c1", "note": "[Compound 1, (S)-(3-(dimethylamino)azetidin-1-yl)(2-(6-(2-ethyl-4-hydroxyphenyl)-1H-indazol-3-yl)-5-isopropyl-4,5,6,7-tetrahydro-3H-imidazo[4,5-c]pyridin-6-yl)methanone]", "values": [{"measurement": "exposures provided by the loading dose on Day 1", "value": "consistent with pseudo steady-state"}, {"measurement": "Clinical Status at Day 28: 1-Not hospitalized, no limitations on activities, number", "setting": "1 mg", "value": 5}, {"measurement": "Clinical Status at Day 28: 1-Not hospitalized, no limitations on activities, percent", "setting": "1 mg", "value": 83.3, "unit": "%"}, {"measurement": "Clinical Status at Day 28: 2-Not hospitalized, but with limitations on activities and/or requiring home oxygen, number", "setting": "1 mg", "value": 0}, {"measurement": "Clinical Status at Day 28: 3-Hospitalized, not requiring supplemental oxygen, and no longer requiring ongoing medical care, number", "setting": "1 mg", "value": 0}, {"measurement": "Clinical Status at Day 28: 4-Hospitalized, not requiring supplemental oxygen, but requiring ongoing medical care, number", "setting": "1 mg", "value": 0}, {"measurement": "Clinical Status at Day 28: 5-Hospitalized, requiring supplemental oxygen, number", "setting": "1 mg", "value": 0}, {"measurement": "Clinical Status at Day 28: 6-Hospitalized, on non-invasive ventilation or high-flow oxygen devices, number", "setting": "1 mg", "value": 0}, {"measurement": "Clinical Status at Day 28: 7-Hospitalized, on invasive mechanical ventilation or extracorporeal membrane oxygenation, number", "setting": "1 mg", "value": 0}, {"measurement": "Clinical Status at Day 28: 8-Death, number", "setting": "1 mg", "value": 1}, {"measurement": "Clinical Status at Day 28: 8-Death, percent", "setting": "1 mg", "value": 16.7, "unit": "%"}, {"measurement": "Still in Hospital at Day 28, number", "setting": "1 mg", "value": 0}, {"measurement": "Time to Hospital Discharge (Days) Median", "setting": "1 mg", "value": 18.5, "unit": "days"}, {"measurement": "Modified Borg Dyspnea Score, Baseline, Mean", "setting": "1 mg group", "value": 6.17}, {"measurement": "Modified Borg Dyspnea Score Change from Baseline, Mean", "setting": "1 mg, Day 2", "value": 0.33}, {"measurement": "Modified Borg Dyspnea Score Change from Baseline, Mean", "setting": "1 mg, Day 3", "value": "−0.33"}, {"measurement": "Modified Borg Dyspnea Score Change from Baseline, Mean", "setting": "1 mg, Day 4", "value": "−0.83"}, {"measurement": "Modified Borg Dyspnea Score Change from Baseline, Mean", "setting": "1 mg, Day 5", "value": "−1.17"}, {"measurement": "Modified Borg Dyspnea Score Change from Baseline, Mean", "setting": "1 mg, Day 6", "value": "−1.33"}, {"measurement": "Hospital Discharge, number", "setting": "1 mg, Day 7", "value": 0}, {"measurement": "Modified Borg Dyspnea Score Change from Baseline, Mean", "setting": "1 mg, Day 7", "value": "−1.50"}, {"measurement": "Hospital Discharge, number", "setting": "1 mg, Day 14", "value": 2}, {"measurement": "Hospital Discharge, percent", "setting": "1 mg, Day 14", "value": 33.3, "unit": "%"}, {"measurement": "Hospital Discharge, number", "setting": "1 mg, Day 21", "value": 3}, {"measurement": "Hospital Discharge, percent", "setting": "1 mg, Day 21", "value": 50.0, "unit": "%"}, {"measurement": "# Subjects Respiratory Failure-Free, percent", "setting": "1 mg, Day 28", "value": 83.3, "unit": "%"}, {"measurement": "Hospital Discharge, number", "setting": "1 mg, Day 28", "value": 5}, {"measurement": "Hospital Discharge, percent", "setting": "1 mg, Day 28", "value": 83.3, "unit": "%"}, {"measurement": "Proportion of Subjects Alive and Respiratory Failure-free", "setting": "1 mg, Day 28", "value": 83.3, "unit": "%"}, {"measurement": "Proportion of Subjects Alive and Respiratory Failure-free, number", "setting": "1 mg, Day 28", "value": 5}, {"measurement": "# Subjects Respiratory Failure-Free", "setting": "1 mg, Day 28, number of subjects", "value": 5}, {"measurement": "IFN-γ, within-group percent difference in geometric mean from baseline", "setting": "[1]", "value": "−46.12", "unit": "%"}, {"measurement": "IL-6, within-group percent difference in geometric mean from baseline", "setting": "[1]", "value": 29.45, "unit": "%"}, {"measurement": "IL-8, within-group percent difference in geometric mean from baseline", "setting": "[1]", "value": "−16.78", "unit": "%"}, {"measurement": "IL-10, within-group percent difference in geometric mean from baseline", "setting": "[1]", "value": "−26.59", "unit": "%"}, {"measurement": "IP-10, within-group percent difference in geometric mean from baseline", "setting": "[1]", "value": "−20.65", "unit": "%"}, {"measurement": "MCP-1, within-group percent difference in geometric mean from baseline", "setting": "[1]", "value": 13.90, "unit": "%"}, {"measurement": "MDC, within-group percent difference in geometric mean from baseline", "setting": "[1]", "value": "−55.03", "unit": "%"}, {"measurement": "RAGE, within-group percent difference in geometric mean from baseline", "setting": "[1]", "value": "−14.22", "unit": "%"}, {"measurement": "TARC, within-group percent difference in geometric mean from baseline", "setting": "[1]", "value": "−57.21", "unit": "%"}, {"measurement": "hsCRP, within-group percent difference in geometric mean from baseline", "setting": "[1]", "value": "−34.85", "unit": "%"}, {"measurement": "Time to Hospital Discharge (Days) Mean ± SD", "setting": "1 mg, still hospitalized or died = 28 days", "value": "18.83 ± 6.795", "unit": "days"}, {"measurement": "# Subjects Alive, percent", "setting": "1 mg, through Day 28", "value": 83.3, "unit": "%"}, {"measurement": "Died (All-Cause Mortality), percent", "setting": "1 mg, through Day 28", "value": 16.7, "unit": "%"}, {"measurement": "# Subjects Alive", "setting": "1 mg, through Day 28, number of subjects", "value": 5}, {"measurement": "Clinical Status at Day 28: 1-Not hospitalized, no limitations on activities, number", "setting": "3 mg", "value": 5}, {"measurement": "Clinical Status at Day 28: 1-Not hospitalized, no limitations on activities, percent", "setting": "3 mg", "value": 83.3, "unit": "%"}, {"measurement": "Clinical Status at Day 28: 2-Not hospitalized, but with limitations on activities and/or requiring home oxygen, number", "setting": "3 mg", "value": 0}, {"measurement": "Clinical Status at Day 28: 3-Hospitalized, not requiring supplemental oxygen, and no longer requiring ongoing medical care, number", "setting": "3 mg", "value": 0}, {"measurement": "Clinical Status at Day 28: 4-Hospitalized, not requiring supplemental oxygen, but requiring ongoing medical care, number", "setting": "3 mg", "value": 1}, {"measurement": "Clinical Status at Day 28: 4-Hospitalized, not requiring supplemental oxygen, but requiring ongoing medical care, percent", "setting": "3 mg", "value": 16.7, "unit": "%"}, {"measurement": "Clinical Status at Day 28: 5-Hospitalized, requiring supplemental oxygen, number", "setting": "3 mg", "value": 0}, {"measurement": "Clinical Status at Day 28: 6-Hospitalized, on non-invasive ventilation or high-flow oxygen devices, number", "setting": "3 mg", "value": 0}, {"measurement": "Clinical Status at Day 28: 7-Hospitalized, on invasive mechanical ventilation or extracorporeal membrane oxygenation, number", "setting": "3 mg", "value": 0}, {"measurement": "Clinical Status at Day 28: 8-Death, number", "setting": "3 mg", "value": 0}, {"measurement": "Still in Hospital at Day 28, number", "setting": "3 mg", "value": 0}, {"measurement": "Time to Hospital Discharge (Days) Median", "setting": "3 mg", "value": 17.0, "unit": "days"}, {"measurement": "Modified Borg Dyspnea Score, Baseline, Mean", "setting": "3 mg group", "value": 6.71}, {"measurement": "Modified Borg Dyspnea Score Change from Baseline, Mean", "setting": "3 mg, Day 2", "value": "−0.43"}, {"measurement": "Modified Borg Dyspnea Score Change from Baseline, Mean", "setting": "3 mg, Day 3", "value": "−1.00"}, {"measurement": "Modified Borg Dyspnea Score Change from Baseline, Mean", "setting": "3 mg, Day 4", "value": "−0.50"}, {"measurement": "Modified Borg Dyspnea Score Change from Baseline, Mean", "setting": "3 mg, Day 5", "value": "−1.20"}, {"measurement": "Modified Borg Dyspnea Score Change from Baseline, Mean", "setting": "3 mg, Day 6", "value": "−1.20"}, {"measurement": "Hospital Discharge, number", "setting": "3 mg, Day 7", "value": 1}, {"measurement": "Hospital Discharge, percent", "setting": "3 mg, Day 7", "value": 14.3, "unit": "%"}, {"measurement": "Modified Borg Dyspnea Score Change from Baseline, Mean", "setting": "3 mg, Day 7", "value": "−1.80"}, {"measurement": "Hospital Discharge, number", "setting": "3 mg, Day 14", "value": 2}, {"measurement": "Hospital Discharge, percent", "setting": "3 mg, Day 14", "value": 28.6, "unit": "%"}, {"measurement": "Hospital Discharge, number", "setting": "3 mg, Day 21", "value": 6}, {"measurement": "Hospital Discharge, percent", "setting": "3 mg, Day 21", "value": "86% and 85.7%"}, {"measurement": "# Subjects Respiratory Failure-Free, percent", "setting": "3 mg, Day 28", "value": 85.7, "unit": "%"}]}]}
